# Measured values published in ChEMBL document CHEMBL1141062, “Synthesis and evaluation of tricyclic pyrrolopyrimidinones as dipeptide mimetics: inhibition of interleukin-1beta-converting enzyme” (Bioorg Med Chem Lett, 2005).
# What was measured:
# Caspase-3 = molecular target: T1, Caspase-3 (Homo sapiens, UniProt P42574); experiment: Inhibitory activity towards CASP3 using fluorogenic substrates following an incubation for over 30 min at 37 degree C
# T1 sequence (P42574 whole entry): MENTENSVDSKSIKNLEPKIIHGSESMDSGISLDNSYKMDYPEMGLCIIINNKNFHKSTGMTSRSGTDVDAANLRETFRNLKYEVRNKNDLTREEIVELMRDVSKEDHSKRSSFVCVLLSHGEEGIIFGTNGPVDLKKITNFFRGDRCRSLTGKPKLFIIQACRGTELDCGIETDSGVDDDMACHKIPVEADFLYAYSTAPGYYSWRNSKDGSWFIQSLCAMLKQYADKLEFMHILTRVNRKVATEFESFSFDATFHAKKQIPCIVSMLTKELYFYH
# Caspase-8 = Caspase-8 (Homo sapiens, UniProt Q14790); experiment: Inhibitory activity towards CASP8 using fluorogenic substrates following an incubation for over 30 min at 37 degree C
# Chain of Caspase-8 (Q14790 217-374 limits assumed): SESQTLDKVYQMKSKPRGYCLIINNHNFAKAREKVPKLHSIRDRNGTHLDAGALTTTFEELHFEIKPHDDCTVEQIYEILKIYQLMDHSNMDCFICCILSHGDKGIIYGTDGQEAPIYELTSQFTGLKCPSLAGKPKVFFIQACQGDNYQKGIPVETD
# Chain of Caspase-8 (Q14790 385-479 limits assumed): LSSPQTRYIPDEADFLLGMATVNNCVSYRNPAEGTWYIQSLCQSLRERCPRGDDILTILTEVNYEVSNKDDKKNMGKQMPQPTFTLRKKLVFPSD
# THP-1 = experiment: Inhibitory concentration against IL-1b production in THP-1 cells; type: functional, cell-based; settings: Homo sapiens
# Caspase-1 = molecular target: T2, Caspase-1 (Homo sapiens, UniProt P29466); experiment: Inhibitory activity towards CASP1 using fluorogenic substrates following an incubation for over 30 min at 37 degree C
# T2 sequence (P29466 whole entry): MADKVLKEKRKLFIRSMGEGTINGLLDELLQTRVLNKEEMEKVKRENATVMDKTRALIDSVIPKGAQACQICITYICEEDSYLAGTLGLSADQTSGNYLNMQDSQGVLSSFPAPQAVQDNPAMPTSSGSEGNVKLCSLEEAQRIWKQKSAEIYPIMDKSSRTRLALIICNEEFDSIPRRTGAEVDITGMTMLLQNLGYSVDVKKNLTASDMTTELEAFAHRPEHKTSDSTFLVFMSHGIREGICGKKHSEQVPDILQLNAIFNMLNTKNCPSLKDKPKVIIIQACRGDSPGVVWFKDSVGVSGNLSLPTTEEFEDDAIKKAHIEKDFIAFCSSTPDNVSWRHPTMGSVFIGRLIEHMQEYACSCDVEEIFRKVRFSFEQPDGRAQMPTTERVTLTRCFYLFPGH
IC50 (Caspase-3),IC50 (Caspase-8),IC50 (THP-1),IC50 (Caspase-1),Structure (SMILES)
10000 nM,10000 nM,10000 nM,4580 nM,O=C1C[C@H](NC(=O)[C@@H]2CCc3nc4ccccc4c(=O)n32)C(O)O1 (some centres undefined)
10000 nM,4810 nM,830 nM,97 nM,O=C1C[C@H](NC(=O)[C@@H]2CCc3nc4cc(-c5ccc(Cl)cc5)nc-4c(O)n32)C(O)O1 (some centres undefined)
4390 nM,1820 nM,529 nM,55 nM,O=C1C[C@H](NC(=O)[C@@H]2CCc3nc4cc(-c5cccc(Cl)c5)nc-4c(O)n32)C(O)O1 (some centres undefined)
2290 nM,7540 nM,975 nM,421 nM,CC(C)(C)c1cc2nc3n(c(O)c-2n1)[C@H](C(=O)N[C@H]1CC(=O)OC1O)CC3 (some centres undefined)
1840 nM,336 nM,252 nM,14 nM,O=C1C[C@H](NC(=O)[C@@H]2CCc3nc4cc(-c5ccccc5Cl)nc-4c(O)n32)C(O)O1 (some centres undefined)
10000 nM,3050 nM,1060 nM,264 nM,O=C1C[C@H](NC(=O)[C@@H]2CCc3nc4cc(-c5ccccc5)nc-4c(O)n32)C(O)O1 (some centres undefined)
